The values that follow come from patent US11865126B2, “Method for treating anxiety disorders, headache disorders, and eating disorders with psilocybin” (priority 2019, dated 2024).

One data set has as its system healthy subjects. Nature of the data set: CANTAB global composite score. It counts as in vivo, human. The note with it: 10 mg vs placebo, Day 7. On the procedure:
The following list of outcome measures are non-exhaustive. • a. The short-term change from Baseline (Day −1 [Visit 2]) to Day 7 (Visit 5) in cognitive measures of attention, spatial and working memory and executive function was measured by a composite score of the CANTAB Panel (Spatial Working Memory [SWM], Rapid Visual Information Processing [RVP], Paired Associates Learning [PAL]). • b. The short-term change from Baseline (Day −1 [Visit 2]) to Day 7 (Visit 5) in Social Cognition Panel scales (Pictorial Empathy Test [PET], Reading the Mind in the Eyes Test [RMET], Toronto Empathy Questionnaire [TEQ], Social Value Orientation [SVO], Scale of Social Responsibility [SSR]). • c. The change from Baseline (Day −1 [Visit 2]) to Day 28 (Visit 6) in cognitive measures of attention, spatial and working memory and executive function as measured by a composite score of the CANTAB Panel (SWM, RVP, PAL). • d. […] Dose-related differences between cognitive effects of psilocybin at Baseline (Day −1 [Visit 2]), Day 7 (Visit 5) and Day 28 (Visit 6), as measured by a composite score of the CANTAB Panel (SWM, RVP, PAL). • f. Dose-related differences between psychological effects of psilocybin at Baseline (Day −1 [Visit 2]), Day 7 (Visit 5) and Day 84 (Visit 7), as measured by Social Cognition Panel scales (PET, RMET, TEQ, SVO, SSR). • g. […]

For the next data set, the system named is female Wistar rats. Nature of the data set: Binge eating model: chow, chocolate and total food intake. To be noted: across the whole study.

The structures appear in SMILES notation.

On to `CN(C)CCc1c[nH]c2cccc(OP(=O)(O)O)c12` [psilocybin], for which the “CANTAB global composite score, effect size” value in the data set with healthy subjects is 0.53. Further, the “Food intake over the 24 hour period (normal feeding behaviour)” value in the data set on female Wistar rats is “not significantly altered”.
